Earlier results on two substances are cited in article PMC9668914, “Understanding VPAC receptor family peptide binding and selectivity” (Nature Communications, 2022).

For one data set, the target named is T1, PAC1R (Homo sapiens, UniProt P41586).
T1 construct: An HA signal peptide was inserted in place of the native signal peptide of the receptors; HA signal peptide (replaces the native signal peptide) (N); 3C protease cleavage sites (between FLAG and receptor, and between receptor and His) (internal); expressed in transfected cells; host or cells: COS-7 (transient, PEI)
T1 sequence (P41586 21-468): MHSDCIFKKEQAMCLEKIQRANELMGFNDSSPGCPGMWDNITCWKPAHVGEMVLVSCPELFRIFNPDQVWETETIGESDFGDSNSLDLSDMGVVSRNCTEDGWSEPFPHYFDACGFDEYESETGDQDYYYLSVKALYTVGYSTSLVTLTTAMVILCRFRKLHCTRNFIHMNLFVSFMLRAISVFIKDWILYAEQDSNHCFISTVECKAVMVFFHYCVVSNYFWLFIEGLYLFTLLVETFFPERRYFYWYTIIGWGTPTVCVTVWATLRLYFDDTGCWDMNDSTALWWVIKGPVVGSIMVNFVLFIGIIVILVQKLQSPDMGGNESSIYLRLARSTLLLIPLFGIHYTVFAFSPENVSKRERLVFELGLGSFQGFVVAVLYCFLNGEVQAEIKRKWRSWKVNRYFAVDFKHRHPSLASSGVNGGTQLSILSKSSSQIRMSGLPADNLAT
The arrangement: method as in PMID 8995389. The settings on record: cited from earlier work.

The subject of a further data set is VPAC2R. The settings on record: cited from earlier work.

For maxadilan, on PAC1R, the agonist selectivity result is “PAC1R-selective agonist”.
For the substance “pituitary adenylate cyclase-activating polypeptide [PACAP]”, the VPAC2R affinity result with VPAC2R is “high affinity”.
